Test results from patent publication US4293694A, “Pyrido[3,2,1-jk]carbazols” (Otsuka Pharmaceutical Co., Ltd., priority 1979, dated 1981).
Converted amounts (≈) assume the structure as drawn. Read-outs that look alike come from different tables or passages of the source.

Columns and labels:
[1] = Acute toxicity; conditions: rat, in vivo, rats, dd strain, 18 to 22 g, fasted 12 hours
Method: Further, the acute toxicity of the compounds of the present invention having the formula (I) was determined by intravenous administration (i.v.) and oral administration (p.o.) in 5 to 6 groups of rats (dd strain; body weight, 18 to 22 g; 10 rats in each group) which had been fasted for 12 hours prior to the test.

[2] = test system: Enterbactor aerogenes IFO 12979; experiment: Antimicrobial activity, serial dilution method on agar plate; type: cell-based; conditions: read-out: Minimum Inhibitory Concentration (MIC)
[3] = test system: Enterbactor cloacae 2; experiment: as above; type: cell-based; conditions: read-out: Minimum Inhibitory Concentration (MIC)
[4] = test system: Serratia marcescens ATCC 14756; experiment: as above; type: cell-based; conditions: ATCC14756, read-out: Minimum Inhibitory Concentration (MIC)
[5] = test system: Staphyrococcus aureus Newmann; experiment: as above; type: cell-based; conditions: read-out: Minimum Inhibitory Concentration (MIC)
[6] = test system: Bacillus subtilis ATCC 6633; experiment: as above; type: cell-based; conditions: ATCC6633, read-out: Minimum Inhibitory Concentration (MIC)
[7] = test system: Salmonella typhimurium kh; experiment: as above; type: cell-based; conditions: Salmonella enterica, read-out: Minimum Inhibitory Concentration (MIC)
[8] = test system: Proteus mirabilis 1287; experiment: as above; type: cell-based; conditions: read-out: Minimum Inhibitory Concentration (MIC)
[9] = test system: Streptococcus faecalis IFO 12580; experiment: as above; type: cell-based; conditions: Enterococcus faecalis, IFO12580, read-out: Minimum Inhibitory Concentration (MIC)
[10] = test system: Bacillus anthracis; experiment: microbe, parasite or virus in culture; type: cell-based; conditions: read-out: Minimum Inhibitory Concentration (MIC)
[11] = test system: Esherichia coli NIHJ JC-2; experiment: Antimicrobial activity, serial dilution method on agar plate; type: cell-based; conditions: read-out: Minimum Inhibitory Concentration (MIC)
[12] = test system: Esherichia coli NIHJ; experiment: as above; type: cell-based; conditions: read-out: Minimum Inhibitory Concentration (MIC)
[13] = test system: Sarcina lutea ATCC 9341; experiment: as above; type: cell-based; conditions: Micrococcus luteus, ATCC9341, read-out: Minimum Inhibitory Concentration (MIC)
[14] = test system: Candida albicans KYU; experiment: as above; type: cell-based; conditions: read-out: Minimum Inhibitory Concentration (MIC)
[15] = test system: Staphyrococcus aureus FDA 209p; experiment: as above; type: cell-based; conditions: read-out: Minimum Inhibitory Concentration (MIC)
[16] = test system: Klebsiella pneumoniae ST-101; experiment: as above; type: cell-based; conditions: ST101, read-out: Minimum Inhibitory Concentration (MIC)
[17] = test system: Bacillus cereus ATCC 11778; experiment: as above; type: cell-based; conditions: ATCC11778, read-out: Minimum Inhibitory Concentration (MIC)
[18] = test system: Streptomyces viridans; experiment: as above; type: cell-based; conditions: read-out: Minimum Inhibitory Concentration (MIC)
[19] = test system: Micrococcus flavus ATCC 10240a; experiment: as above; type: cell-based; conditions: ATCC10240A, read-out: Minimum Inhibitory Concentration (MIC)
[20] = test system: Pseudomonas aeruginosa ATCC 10145; experiment: as above; type: cell-based; conditions: ATCC10145, read-out: Minimum Inhibitory Concentration (MIC)
[21] = iv, read-out: LD50 (50% lethal dose), i.v.
[22] = po, read-out: LD50 (50% lethal dose), p.o.

SMILES | LD50 [1, 21] [mg/kg] | LD50 [1, 22] [mg/kg] | MIC [2] [µg/mL] | MIC [3] [µg/mL] | MIC [4] [µg/mL] | MIC [5] [µg/mL] | MIC [6] [µg/mL] | MIC [7] [µg/mL] | MIC [8] [µg/mL] | MIC [9] [µg/mL] | MIC [10] [µg/mL] | MIC [11] [µg/mL] | MIC [12] [µg/mL] | MIC [13] [µg/mL] | MIC [14] [µg/mL] | MIC [15] [µg/mL] | MIC [16] [µg/mL] | MIC [17] [µg/mL] | MIC [18] [µg/mL] | MIC [19] [µg/mL] | other results
CC1CCN(CCOC(=O)c2cn3c4c(cc(F)cc4c2=O)C2CCCCC23)CC1 (stereo not drawn) [Compound 12] | 130 | 2000 | 6.3 (≈ 15.3 µM) | 6.3 (≈ 15.3 µM) | 12.5 (≈ 30.3 µM) | 6.3 (≈ 15.3 µM) | 3.2 (≈ 7.76 µM) | 12.5 (≈ 30.3 µM) | 12.5 (≈ 30.3 µM) | 50 (≈ 121 µM) | 6.3 (≈ 15.3 µM) | 6.3 (≈ 15.3 µM) | 6.3 (≈ 15.3 µM) | 50 (≈ 121 µM) | > 500 | 6.3 (≈ 15.3 µM) | 6.3 (≈ 15.3 µM) | 6.3 (≈ 15.3 µM) | 100 (≈ 242 µM) | 50 (≈ 121 µM) | MIC [20]: > 100 µg/mL
Nc1ccc2c3c1c(=O)c(C(=O)O)cn3C1CCCCC21 (stereo not drawn) [Compound 7, 3-amino-7a,8,9,10,11,11a-hexahydro-4-oxo-4H-pyrido[3,2,1-jk]carbazol-5-carboxylic acid] | 115 | 4500 | 12.5 (≈ 44 µM) | 12.5 (≈ 44 µM) | 12.5 (≈ 44 µM) | 50 (≈ 176 µM) | 6.3 (≈ 22.2 µM) | 12.5 (≈ 44 µM) | 50 (≈ 176 µM) | > 100 | 12.5 (≈ 44 µM) | 50 (≈ 176 µM) | 25 (≈ 87.9 µM) | > 100 | > 500 | 50 (≈ 176 µM) | 12.5 (≈ 44 µM) | 50 (≈ 176 µM) | > 100 | > 100 | MIC [20]: > 100 µg/mL
O=C(O)c1cn2c3c(ccc([N+](=O)[O-])c3c1=O)C1CCCCC12 (stereo not drawn) [Compound 6, 3-nitro-7a,8,9,10,11,11a-hexahydro-4-oxo-4H-pyrido[3,2,1-jk]carbazol-5-carboxylic acid] | 110 | 4000 | 6.3 (≈ 20 µM) | 6.3 (≈ 20 µM) | 6.3 (≈ 20 µM) | 12.5 (≈ 39.8 µM) | 3.2 (≈ 10.2 µM) | 12.5 (≈ 39.8 µM) | 12.5 (≈ 39.8 µM) | > 100 | 12.5 (≈ 39.8 µM) | 12.5 (≈ 39.8 µM) | 6.3 (≈ 20 µM) | 50 (≈ 159 µM) | > 500 | 12.5 (≈ 39.8 µM) | 6.3 (≈ 20 µM) | 12.5 (≈ 39.8 µM) | > 100 | 50 (≈ 159 µM) | MIC [20]: > 100 µg/mL
O=C(O)c1cn2c3c(cc(F)cc3c1=O)C1CCCCC12 (stereo not drawn) [Compound 1, 2-fluoro-7a,8,9,10,11,11a-hexahydro-4-oxo-4H-pyrido[3,2,1-jk]carbazol-5-carboxylic acid] | 130 | 5000 | 3.2 (≈ 11.1 µM) | 3.2 (≈ 11.1 µM) | 3.2 (≈ 11.1 µM) | 6.3 (≈ 21.9 µM) | 1.6 (≈ 5.57 µM) | 6.3 (≈ 21.9 µM) | 12.5 (≈ 43.5 µM) | 100 (≈ 348 µM) | 3.2 (≈ 11.1 µM) | 6.3 (≈ 21.9 µM) | 6.3 (≈ 21.9 µM) | 50 (≈ 174 µM) | > 500 | 6.3 (≈ 21.9 µM) | 3.2 (≈ 11.1 µM) | 25 (≈ 87 µM) | 100 (≈ 348 µM) | 50 (≈ 174 µM) | MIC [20]: > 100 µg/mL
COc1cc2c3c(c1)c(=O)c(C(=O)O)cn3C1CCCCC21 (stereo not drawn) [Compound 4, 2-Methoxy-7a,8,9,10,11,11a-hexahydro-4-oxo-4H-pyrido[3,2,1-jk]carbazol-5-carboxylic acid] | 130 | 4000 | 6.3 (≈ 21 µM) | 6.3 (≈ 21 µM) | 12.5 (≈ 41.8 µM) | 12.5 (≈ 41.8 µM) | 3.2 (≈ 10.7 µM) | 12.5 (≈ 41.8 µM) | 25 (≈ 83.5 µM) | 100 (≈ 334 µM) | 6.3 (≈ 21 µM) | 12.5 (≈ 41.8 µM) | 12.5 (≈ 41.8 µM) | 100 (≈ 334 µM) | > 500 | 12.5 (≈ 41.8 µM) | 6.3 (≈ 21 µM) | 12.5 (≈ 41.8 µM) | 100 (≈ 334 µM) | 100 (≈ 334 µM) | MIC [20]: > 100 µg/mL
